{"source": "patent US7868031B2", "about": "“Propionamide compounds as antiinflammatory agents” (Roche Palo Alto LLC, priority 2005, dated 2011)", "biological_target": "T1, Human recombinant purified glucocorticoid receptor (Homo sapiens, UniProt P04150)", "T1 sequence (P04150 1-777)": "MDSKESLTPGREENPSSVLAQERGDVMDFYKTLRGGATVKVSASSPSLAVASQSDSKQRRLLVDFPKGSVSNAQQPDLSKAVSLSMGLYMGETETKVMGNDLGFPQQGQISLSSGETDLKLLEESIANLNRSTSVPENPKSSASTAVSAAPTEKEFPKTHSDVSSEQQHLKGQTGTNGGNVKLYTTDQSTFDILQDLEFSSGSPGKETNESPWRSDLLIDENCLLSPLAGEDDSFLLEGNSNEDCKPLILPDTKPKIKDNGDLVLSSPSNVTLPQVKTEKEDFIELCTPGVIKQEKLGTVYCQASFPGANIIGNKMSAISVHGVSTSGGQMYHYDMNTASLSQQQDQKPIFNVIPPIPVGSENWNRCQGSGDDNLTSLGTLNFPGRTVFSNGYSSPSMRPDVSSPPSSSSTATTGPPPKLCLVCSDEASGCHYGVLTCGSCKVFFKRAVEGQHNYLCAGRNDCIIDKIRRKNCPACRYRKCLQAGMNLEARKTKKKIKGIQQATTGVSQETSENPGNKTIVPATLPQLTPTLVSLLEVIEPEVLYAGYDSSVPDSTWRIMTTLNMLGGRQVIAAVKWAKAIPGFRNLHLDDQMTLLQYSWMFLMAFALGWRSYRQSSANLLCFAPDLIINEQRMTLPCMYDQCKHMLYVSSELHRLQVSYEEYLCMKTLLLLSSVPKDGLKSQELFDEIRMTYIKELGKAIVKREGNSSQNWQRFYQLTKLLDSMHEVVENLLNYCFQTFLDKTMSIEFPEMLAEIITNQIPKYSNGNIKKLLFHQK", "test": "Glucocorticoid receptor competitive binding assay (3H-dexamethasone)", "conditions": "competition with 2 nM 3H-dexamethasone; GR at 1 nM; 4° C. overnight; read-out: Binding Affinity Ki", "description": "The affinity of glucocorticoid receptor antagonists for the glucocorticoid receptor was determined in competitive binding assays by the ability of the antagonist to compete with tritiated dexamethasone. All assay steps were performed on ice in 96-well plates. Binding buffer contained 10 mM potassium phosphate pH 7.4, 20 mM Na2Mo4, 100 μM EDTA, 2% DMSO, and 5 mM DTT. Human recombinant purified glucocorticoid receptor was used at 1 nM. Compounds tested had up to 2% DMSO final concentration. Non-specific binding condition was 1 μM dexamethasone. The radioligand used for the competition assay was 2 nM ^3H-dexamethasone (83 Ci/mmol stock solution). Buffer, compounds or vehicles, GR, and radioligand were incubated at 4° C. overnight. Unifilter GF/B 96-well filter plates were treated with 0.5% PEI after incubation. Samples were transferred to filter plates by a cell harvester.\nFilter plates were washed five times with 50 mM Tris pH 7.5 and 5 mM EDTA wash buffer. Samples were dried at 65° C. for about 1 hr. Scintillation fluid was added to filter plates at 50 μL/well and ^3H cpm were measured on a TopCount scintillation counter."}
{"smiles": "Cc1noc(-c2ccc(NC(=O)C(O)(CC3(c4ccccc4C(F)(F)F)CCC3)C(F)(F)F)cc2)n1", "note": "(stereo not shown) [Example 3, 3,3,3-Trifluoro-2-hydroxy-N-[4-(3-methyl-[1,2,4]oxadiazol-5-yl-)-phenyl]-2-[1-(2-trifluoromethyl-phenyl)-cyclobutylmethyl]-propionamide]", "values": [{"measurement": "Ki", "result": 0.0252, "unit": "µM"}]}
{"smiles": "O=C(Nc1ccc(-c2ncco2)cc1)C(O)(CC1(c2ccccc2C(F)(F)F)CCC1)C(F)(F)F", "note": "(stereo not shown) [Example 1, 3,3,3-Trifluoro-2-hydroxy-N-(4-oxazol-2-yl-phenyl)-2-[1-(2-trifluoromethyl-phenyl)-cyclobutylmethyl]-propionamide]", "values": [{"measurement": "Ki", "result": 0.161, "unit": "µM"}]}
{"smiles": "CCOC(=O)C(O)c1ccc(NC(=O)C(O)(CC2(c3ccccc3C(F)(F)F)CCC2)C(F)(F)F)cc1", "note": "(stereo not shown) [Example 4, Hydroxy-(4-{3,3,3-trifluoro-2-hydroxy-2-[1-(2-trifluoromethyl-phenyl)-cyclobutylmethyl]-propionylamino}-phenyl)-acetic acid ethyl ester]", "values": [{"measurement": "Ki", "result": 0.555, "unit": "µM"}]}
{"smiles": "O=C(Nc1cccc(-c2cnco2)c1)C(O)(CC1(c2ccccc2C(F)(F)F)CCC1)C(F)(F)F", "note": "(stereo not shown) [Example 2, 3,3,3-Trifluoro-2-hydroxy-N-(3-oxazol-5-yl-phenyl)-2-[1-(2-trifluoromethyl-phenyl)-cyclobutylmethyl]-propionamide]", "values": [{"measurement": "Ki", "result": 0.0135, "unit": "µM"}]}
